Measurements from US20120053168A1, “FUSED BENZOAZEPINES AS NEURONAL NICOTINIC ACETYLCHOLINE RECEPTOR LIGANDS” (Targacept, Inc., priority 2009, published 2012).

Columns and labels:
[1] = molecular target: T1, human muscle nAChR subtype (Homo sapiens, UniProt P02708+P07510+Q07001); experiment: 86Rb+ efflux in TE671/RD cells (human muscle nAChR subtype); type: cell-based
T1 construct: endogenous in cells; host or cells: TE671/RD human rhabdomyosarcoma cells
Excerpt: Example 7: Interaction at the Human Muscle nAChR Subtype
Activation of muscle-type nAChRs was established on the human clonal line TE671/RD, which is derived from an embryonal rhabdomyosarcoma (Stratton et al., Carcinogen 10: 899 (1989)). These cells express receptors that have pharmacological (Lukas, J. Pharmacol. Exp. Ther. 251: 175 (1989)), electrophysiological (Oswald et al., Neurosci. Lett. 96: 207 (1989)), and molecular biological profiles (Luther et al., J. Neurosci. 9: 1082 (1989)) similar to the muscle-type nAChR.
TE671/RD cells were maintained in proliferative growth phase according to routine protocols (Bencherif et al., Mol. Cell. Neurosci. 2: 52 (1991) and Bencherif et al., J. Pharmacol. Exp. Ther. 257: 946 (1991)). […]
Nicotinic acetylcholine receptor (nAChR) function was assayed using ^86Rb^+efflux according to the method described by Lukas et al., Anal. Biochem. 175: 212 (1988). […] Scintillation fluid was added and released radioactivity was measured by liquid scintillation counting. […]
When appropriate, dose-response curves of test compound were determined. The maximal activation for individual compounds (Emax) was determined as a percentage of the maximal activation induced by L-nicotine. The compound concentration resulting in half maximal activation (EC50) of specific ion flux was also determined.

[2] = test system: animals impaired with scopolamine; experiment: Radial Arm Maze (RAM) task, scopolamine-induced cognitive deficits; type: in vivo, rat; details: 3 mg/kg (15.1 μmol/kg) p.o.
Experimental: Working memory is a cognitive domain known to be impaired in schizophrenia; the Radial Arm Maze task is commonly used to assess potential cognitive benefit derived from the test compounds. Using this assay, Compound A (7,8,9,10-tetrahydro-6H-azepino[4,5-g]quinoxaline) attenuated cognitive deficits induced by scopolamine in an animal model of working memory. Working memory was assessed in a 3 trial radial arm maze (RAM) task. The RAM task was conducted using an automated eight-arm maze (Med Associates, Inc.) The maze was located on a circular table approximately 88 cm above the floor with overhead lighting in a dedicated testing room and large, high contrast geometric shapes on the wall. […] The central platform measured 30.5 cm in diameter with eight arms (9 cm W×45.7 cm L×16.8 cm H) radiating from it. […] Activity on the maze was monitored by tracking quantitative activity (generated by infra-red beam breaks) on the computer interface and monitor screen.
Following the baseline assessment on day 1 and after re-attainment of test session criterion, animals were assessed for their sensitivity to chemically-induced cognitive impairment using the muscarinic antagonist scopolamine (0.2-0.4 mg/kg; s.c.). A dose of scopolamine was determined for each animal based on the minimum dose that produced significant and reliable cognitive impairment. […]

[3] = test system: mice impaired with scopolamine; experiment: Morris Water Maze (MWM) task, scopolamine-impaired; type: in vivo; details: 1 mg/kg (5 μmol/kg) p.o., scopolamine 0.75 mg/kg s.c.
Experimental: In an animal model of spatial memory, the efficacy of Compound A (7,8,9,10-tetrahydro-6H-azepino[4,5-g]quinoxaline) to attenuate water-maze performances of mice impaired with scopolamine (0.75 mg/kg, s.c.) was evaluated. Following a two-day acclimation period to the maze, mice were trained for 4 days to a platform location in the maze. During the training sessions, each animal was given four trials separated by 5 minutes between each trial. The platform location was constant for each animal. Compound A (1, 3 and 10 mg/kg or 5, 15.1 and 50 μmol/kg, p.o.) was administered 25 minutes prior to each of the four training days. Scopolamine was administered 15 minutes prior to each of the four training days. The probe trial (i.e., no platform present) was conducted on day 5 under drug-free (i.e., water instead of Compound A and saline instead of scopolamine) conditions. In the MWM model, Compound A (1, 3 and 10 mg/kg) was orally administered 25 minutes whereas scopolamine was subcutaneously administered 15 minutes prior to each of the four training days. During training days, each animal was given four trials separated by 5 minutes between trials. The probe trial was conducted on day 5 under drug-free (i.e., water instead of Compound A and saline instead of scopolamine) conditions.

T1 sequence (P02708 21-457): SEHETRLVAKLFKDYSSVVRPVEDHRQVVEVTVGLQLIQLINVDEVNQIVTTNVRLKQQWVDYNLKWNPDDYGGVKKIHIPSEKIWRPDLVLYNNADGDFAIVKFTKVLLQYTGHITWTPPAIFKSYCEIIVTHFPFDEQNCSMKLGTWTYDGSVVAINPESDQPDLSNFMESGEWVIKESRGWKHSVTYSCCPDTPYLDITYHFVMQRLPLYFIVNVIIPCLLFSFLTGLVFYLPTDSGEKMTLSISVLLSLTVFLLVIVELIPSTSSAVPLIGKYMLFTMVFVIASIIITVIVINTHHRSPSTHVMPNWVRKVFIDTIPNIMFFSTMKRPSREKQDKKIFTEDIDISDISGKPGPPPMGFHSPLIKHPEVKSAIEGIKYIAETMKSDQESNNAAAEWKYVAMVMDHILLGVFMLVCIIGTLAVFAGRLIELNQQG
T1 sequence (P07510 23-517): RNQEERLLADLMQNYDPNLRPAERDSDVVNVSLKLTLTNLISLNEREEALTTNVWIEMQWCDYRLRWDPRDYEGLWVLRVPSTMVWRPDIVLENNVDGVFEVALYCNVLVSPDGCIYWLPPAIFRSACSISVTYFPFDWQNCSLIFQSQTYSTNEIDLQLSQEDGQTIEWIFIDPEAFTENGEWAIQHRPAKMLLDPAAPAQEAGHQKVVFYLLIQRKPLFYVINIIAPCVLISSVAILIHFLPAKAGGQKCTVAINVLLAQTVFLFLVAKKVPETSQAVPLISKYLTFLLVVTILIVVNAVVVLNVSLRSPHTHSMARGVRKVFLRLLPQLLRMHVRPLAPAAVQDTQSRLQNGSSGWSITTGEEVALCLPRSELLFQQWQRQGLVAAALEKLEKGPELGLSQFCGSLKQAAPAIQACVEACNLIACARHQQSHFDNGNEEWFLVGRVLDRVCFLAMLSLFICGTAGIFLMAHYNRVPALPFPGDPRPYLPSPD
T1 sequence (Q07001 22-517): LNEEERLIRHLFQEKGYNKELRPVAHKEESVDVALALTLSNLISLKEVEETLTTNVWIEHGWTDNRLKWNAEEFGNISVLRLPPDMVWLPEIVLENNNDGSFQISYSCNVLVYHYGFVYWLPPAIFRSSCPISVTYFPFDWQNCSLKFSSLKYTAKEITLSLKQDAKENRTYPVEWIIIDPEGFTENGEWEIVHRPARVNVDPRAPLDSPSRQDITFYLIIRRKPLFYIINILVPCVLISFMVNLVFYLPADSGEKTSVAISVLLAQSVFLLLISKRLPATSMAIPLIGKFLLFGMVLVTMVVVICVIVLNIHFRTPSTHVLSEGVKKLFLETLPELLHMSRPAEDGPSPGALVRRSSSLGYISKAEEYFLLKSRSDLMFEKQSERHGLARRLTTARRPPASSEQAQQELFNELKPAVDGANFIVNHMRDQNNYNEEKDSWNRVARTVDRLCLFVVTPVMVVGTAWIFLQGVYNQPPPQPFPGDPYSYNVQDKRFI
T1 sequence (P11230 24-501 partner): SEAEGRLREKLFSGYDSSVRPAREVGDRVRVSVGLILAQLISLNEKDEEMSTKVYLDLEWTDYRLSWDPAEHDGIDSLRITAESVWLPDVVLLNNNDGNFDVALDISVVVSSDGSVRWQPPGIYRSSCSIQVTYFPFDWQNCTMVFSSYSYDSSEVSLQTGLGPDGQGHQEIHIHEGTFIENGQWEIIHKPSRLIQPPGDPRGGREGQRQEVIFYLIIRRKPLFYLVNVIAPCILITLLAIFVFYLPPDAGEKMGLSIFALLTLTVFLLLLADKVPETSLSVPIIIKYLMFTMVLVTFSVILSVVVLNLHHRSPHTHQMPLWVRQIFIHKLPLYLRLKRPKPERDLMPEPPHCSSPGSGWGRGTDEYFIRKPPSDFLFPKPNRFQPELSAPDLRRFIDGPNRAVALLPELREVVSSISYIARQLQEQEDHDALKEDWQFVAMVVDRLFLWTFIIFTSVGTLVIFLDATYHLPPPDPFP

`c1cnc2cc3c(cc2n1)CCNCC3` [Compound A, 7,8,9,10-tetrahydro-6H-azepino[4,5-g]quinoxaline] was tested, and the EC50 ([1]; 86Rb+ efflux) was 75 µM, the Emax ([1]; percentage of maximal activation induced by L-nicotine) was 23% and the “effect on scopolamine-induced cognitive deficits, RAM” value [2] was “attenuated scopolamine-induced cognitive deficits”. The “effect on scopolamine-induced cognitive deficits, MWM” value [3] was “reverse scopolamine-induced cognitive deficits”.
